Values after ≈ are worked out from the molar mass of the structure shown.
How the values were obtained:
[1] = biological target: T1, human TRPA1 (Homo sapiens, UniProt O75762); test: FLIPR Tetra calcium influx assay, CHO cells expressing TRPA1, cinnamaldehyde agonist (hTRPA1 CHO Ca2+ AUC EVO); type: cell-based
T1 construct: expressed in transfected cells; host or cells: CHO cells
Method: The IC50 ([…]) of compounds on the human and rat TRPA1 channels were determined using a FLIPR Tetra instrument. CHO cells expressing TRPA1 were plated into 384-well plates, incubated overnight at 37° C., and loaded with BD calcium indicator dye for 1 hr at 37° C. followed by 15 minutes at room temperature. The assay buffer was Hank's Balanced Salt Solution (HBSS) containing 20 mM HEPES (pH readjusted to 7.4) along with 0.02% BSA.
Following dye load and plate cool down, compounds were added to the cells using FLIPR Tetra. Plates were then incubated with compounds for 20 minutes at room temperature prior to adding agonist. Following this incubation, about an EC80 concentration of cinnamaldehyde (75 uM for human TRPA1 and 45 uM for rat TRPA1) was added to active the channels and block of cinnamaldehyde induced calcium influx was measured.
The IC50 results were fit with a standard Hill function, keeping the Hill coefficient (n) fixed to 1.5. Fixing the Hill coefficient will generally reduce variability of the IC50 determination. The IC50 results were individually examined to make sure the MIN and MAX points were set correctly prior to validation of the results.

[2] = Human protein plasma binding; type: in vitro ADME; conditions: read-out: hPPB (human protein plasma binding) (converted)
Method: Certain pharmacokinetic attributes were evaluated for sulfonyl pyridyl compounds of the present disclosure. The results are shown in Table 3 below where: “hTRPA1” refers to IC50 in nM; “hPPB” refers to human protein plasma binding in percent; “Corrected IC50” refers to the hTRPA1 values corrected for hPPB; “HLM-CLhep” refers to human liver microsome clearance in mL/min/kg; “K.Sol” refers to estimated aqueous solubility in μM; and “NR” refers to not run.
Human protein plasma binding may be measured according to the methods described by Banker et al., “Plasma/Serum Protein Binding Determinations,” Current Drug Metabolism (2008), 9, 854-859, and Kariv et al., “Development of a high throughput equilibrium dialysis method,” J. Pharm Sci. (2001) May; 90(5):580-87, as well as using commercially available assay kits by Wyatt, Cerep, Cyprotex and others.

[3] = Human liver microsome clearance / stability; type: in vitro ADME; conditions: human liver microsomes
Text: Human liver microsome clearance (mL/min/kg) may be measured according to the method described by Ackley et al, “Metabolic Stability Assessed by Liver Microsomes and Hepatocytes”, in “Optimization in Drug Discovery” in the “Methods in Pharmacology and Toxicology” series (ISSN 1557-2153), pp. 151-162 (Yan, Ed., Print ISBN 978-1-58829-332-9, Springer (2004), as well as by using commercially available assay kits by Cerep, Cyprotex, Bd Bioscience and others.
Human liver microsome HLM stability may be measured as using the procedure of Ackley et al. as described above.

[4] = Aqueous solubility (K. Sol); type: physicochemical; conditions: aqueous medium (not further specified), kinetic from dmso stock; read-out: K. Sol (estimated aqueous solubility)
Text: Aqueous solubility may be determined using the procedures reported by Alsenz et al., “High throughput solubility measurement in drug discovery and development,” Advanced Drug Delivery Reviews (2007) 59, 546-568 and Kibbey et al., “An Integrated Process for Measuring the Physicochemical Properties of Drug Candidates in a Preclinical Discovery Environment,” J. Pharmaceutical Sci. (2001) 90(8), 1164-1175.

[5] = biological target: T1, human TRPA1; test: Human Ca2+ MAX IC50 calcium assay; type: cell-based; conditions: Table 5; read-out: H Ca2+ MAX (human CA2+ MAX IC50)
Text: Human Ca2+ MAX IC50 may be measured using one of the commercially available calcium assay kits provided by Molecular Devices, Abcam, Bio-Rad, Biovision, Enzo Lifesciences, Abnova, Sigma-Aldrich, or others.

[6] = GSH (glutathione) trapping of reactive metabolites; type: in vitro ADME; conditions: in vitro incubation with glutathione as trapping reagent
Method: GSH trapping in a method for screening reactive metabolites for the potential to cause adverse drug reactions. Reactive metabolites may implicate clinical toxicity through drug compound bioactivation or inactivation of proteins. One such assessment utilizes in vitro incubations comprising glutathione (GSH) as a trapping reagent. LC/MS may be used to detect and characterize reactive intermediate formation as indicated by trapped glutathione adducts, as described by Yan et al., “Stable Isotope Trapping and High Throughput Screenings of Reactive Metabolites Using the Active MS Signature,” Anal. Chem. (2004), 76, 6835-6847.

[7] = Table 3, read-out: hTRPA1 (IC50)
[8] = calculated from hTRPA1 IC50 and hPPB, read-out: Corrected IC50 (hTRPA1 values corrected for hPPB)

T1 sequence (O75762 whole entry): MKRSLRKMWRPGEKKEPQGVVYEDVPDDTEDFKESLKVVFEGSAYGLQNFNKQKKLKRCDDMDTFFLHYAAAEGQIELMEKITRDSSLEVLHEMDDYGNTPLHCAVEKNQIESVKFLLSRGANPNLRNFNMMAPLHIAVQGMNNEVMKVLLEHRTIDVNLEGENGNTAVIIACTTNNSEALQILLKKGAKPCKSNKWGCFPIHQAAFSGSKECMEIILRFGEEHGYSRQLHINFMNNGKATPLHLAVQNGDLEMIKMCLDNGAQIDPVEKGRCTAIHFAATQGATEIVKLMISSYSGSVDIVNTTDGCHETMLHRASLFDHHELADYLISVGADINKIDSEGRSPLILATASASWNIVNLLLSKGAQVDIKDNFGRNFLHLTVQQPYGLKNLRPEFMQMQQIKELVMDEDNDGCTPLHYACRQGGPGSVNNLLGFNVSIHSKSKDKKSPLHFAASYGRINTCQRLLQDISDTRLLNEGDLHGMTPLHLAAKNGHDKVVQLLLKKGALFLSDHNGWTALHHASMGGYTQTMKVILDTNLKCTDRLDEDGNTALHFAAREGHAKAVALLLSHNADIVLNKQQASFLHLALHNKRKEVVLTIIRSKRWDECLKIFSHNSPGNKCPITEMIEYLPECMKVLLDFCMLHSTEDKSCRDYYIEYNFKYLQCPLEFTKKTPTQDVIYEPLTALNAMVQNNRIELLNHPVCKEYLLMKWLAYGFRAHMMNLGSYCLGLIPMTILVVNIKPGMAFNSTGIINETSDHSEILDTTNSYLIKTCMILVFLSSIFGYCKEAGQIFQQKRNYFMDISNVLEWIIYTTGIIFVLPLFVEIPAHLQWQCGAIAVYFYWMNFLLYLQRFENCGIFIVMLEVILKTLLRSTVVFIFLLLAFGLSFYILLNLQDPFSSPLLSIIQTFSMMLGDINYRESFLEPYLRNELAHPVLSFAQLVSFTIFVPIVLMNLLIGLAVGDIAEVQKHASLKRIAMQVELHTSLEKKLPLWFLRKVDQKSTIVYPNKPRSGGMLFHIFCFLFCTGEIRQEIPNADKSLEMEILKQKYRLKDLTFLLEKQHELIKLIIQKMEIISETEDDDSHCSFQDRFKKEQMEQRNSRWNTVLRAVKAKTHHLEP

SMILES | IC50 [1, 7] | IC50 [1, 8] | fraction unbound [2] | HLM-CLhep (human liver microsome clearance) ([3]; Table 3) | solubility [4] | HLM (human liver microsome stability) ([3]; Table 5) | IC50 [5] | GSH trapping (glutathione trapping) [6]
C[C@H]1[C@H](F)C[C@@H](C(=O)NCc2cc(-c3cnc(C(F)(F)F)nc3)ncc2C(F)(F)F)N1S(=O)(=O)c1ccc(F)cn1 (single isomer, unassigned) [Pyridyl Sulfonamide 1] | 7.9 nM | 161 nM | 0.049 | 4 mL/min/kg | 30 µM (≈ 18.3 µg/mL) | – | – | –
C[C@H]1[C@H](F)C[C@@H](C(=O)NCc2cc(-c3cnc(C(F)(F)F)nc3)cnc2C(F)F)N1S(=O)(=O)c1ccc(F)cn1 (single isomer, unassigned) [Pyridyl Sulfonamide 3] | 329 nM | 1940 nM | 0.17 | – | – | – | – | –
C[C@H]1[C@H](F)C[C@@H](C(=O)NCc2cc(-c3cnc(C(F)(F)F)nc3)ncc2F)N1S(=O)(=O)c1ccc(F)cn1 (single isomer, unassigned) [Pyridyl Sulfonamide 2] | 404 nM | 5400 nM | 0.075 | – | 4 µM (≈ 2.24 µg/mL) | – | – | –
C[C@H]1[C@H](F)C[C@@H](C(=O)NCc2cc(-c3cnc(C(F)(F)F)nc3)ncc2C(F)(F)F)N1S(=O)(=O)c1ccc(Cl)nc1 [Compound 5] | – | – | – | – | – | 6.6 mL/min/kg | 5 nM | positive
